Patent US20050153870A1, “Medicinal composition for diagnosis, prevention, or therapy of multiple risk factor syndrome” (priority 2002, published 2005)

Assays:
[1] = tested on: non-insulin dependent type II diabetes patients; test: Clinical test II; type: in vivo, human; settings: for number of patients with fasting blood sugar level No change or increase / number of patients with reduction rate of fasting blood sugar level 20-10% / number of patients with reduction rate of fasting blood sugar level <10% / number of patients with reduction rate of fasting blood sugar level >20% / number of patients with total serum cholesterol No change or increase / number of patients with total serum cholesterol decreasing rate 20-10% / number of patients with total serum cholesterol decreasing rate <10% / number of patients with total serum cholesterol decreasing rate >20%: 12 weeks
Method: On the other hand, Clinical test II was performed in a group of 79 participants from non-insulin dependent diabetic patients.
79 non-insulin dependent type II diabetes patients whose blood sugar is well-controlled under dietary therapy (all were mongoloid Japanese) participated in Clinical test II. They were forbidden to use sulfonyl urea and biguanide agent which is a therapeutic agent for type II diabetes, and a fibrate series medicament, nicotinic acid, and probucol which is a serum fat decreasing agent; however use of an antihypertensive agent is not particularly prohibited. They participated on a voluntary basis after they signed informed consent for clinical test participation, which was proposed by a medical institution based on the Helsinki declaration. The participants consisted of 26 males and 53 females. An average age at the sign-up time was 58±9.9 years old (average value±standard deviation), ranging from 37 to 81 years old. The body weight of patients was divided by standard body weight obtained from the standard body-weight table issued by Meiji life Insurance Company. This index was 1.24±0.154 (average value±standard deviation) at the sign-up time, meaning that there are many obese persons. After 12 weeks, the body weight index decreased to 1.18±0.137(average value±standard deviation).
The number of patients having normal blood pressure was 58 (of them, 31 patients were taking an antihypertensive agent).

[2] = tested on: DOCA hypertension rat; test: Hypercardia, thickened arteries, edema in organs; type: in vivo
From the text: As to prevention/therapy of arteriosclerosis, a big difference is observed in effect between medicaments conceivably effective in improving arteriosclerosis, such as fibrate series medicament, thiazolidine series medicament, probucol, and statin series medicament and a compound of the present invention.

[3] = body weight fluctuation: No change or increase (total 29)
[4] = body weight fluctuation: No change or increase (total 31)
[5] = body weight fluctuation: Reduction of 3 kg or less (total 24)
[6] = body weight fluctuation: Reduction of 3 kg or less (total 25)
[7] = body weight fluctuation: Reduction of 3 kg or more (total 13)
[8] = body weight fluctuation: Reduction of 3 kg or more (total 18)

COc1c(Cl)c(C)c(C=O)c(O)c1C/C=C(C)/C=C/[C@@]1(C)[C@H](C)CCC(=O)[C@@H]1C [4-O-methylascochlorin]
Fasting blood sugar, change vs before medication ([1]; Normal blood sugar group FBS < 130 mg/dl, 12th week): ns (n = 25) | Fasting blood sugar ([1]; Normal blood sugar group FBS < 130 mg/dl, 12th week, before medication 108.8 ± 15.10): 106.4 ± 17.80 mg/dL | Total serum cholesterol ([1]; Normal group <220 mg/dl, 4th week, before medication 188.9 ± 21.55): 177.9 ± 31.91 mg/dL | Total serum cholesterol, change vs before medication ([1]; Normal group <220 mg/dl, 4th week, ns. = No significant difference): ns. (n = 14) | Total serum cholesterol ([1]; Normal group <220 mg/dl, 8th week, before medication 188.9 ± 21.55): 176.0 ± 36.33 mg/dL | Total serum cholesterol, change vs before medication ([1]; Normal group <220 mg/dl, 8th week, ns. = No significant difference): ns. (n = 14) | Total serum cholesterol ([1]; Normal group <220 mg/dl, 12th week, before medication 188.9 ± 21.55): 181.2 ± 32.10 mg/dL | Total serum cholesterol, change vs before medication ([1]; Normal group <220 mg/dl, 12th week, ns. = No significant difference): ns. (n = 18) | Total serum cholesterol, change vs before medication ([1]; Super high cholesterol group >300 mg/dl, 4th week): −20.0% (n = 20) | Total serum cholesterol ([1]; Super high cholesterol group >300 mg/dl, 4th week, before medication 348.8 ± 56.36): 273.8 ± 29.38 mg/dL | Total serum cholesterol, change vs before medication ([1]; Super high cholesterol group >300 mg/dl, 8th week): −28.9% (n = 20) | Total serum cholesterol ([1]; Super high cholesterol group >300 mg/dl, 8th week, before medication 348.8 ± 56.36): 248.5 ± 36.01 mg/dL | Total serum cholesterol, change vs before medication ([1]; Super high cholesterol group >300 mg/dl, 12th week): −30.0% (n = 21) | Total serum cholesterol ([1]; Super high cholesterol group >300 mg/dl, 12th week, before medication 348.8 ± 56.36): 244.2 ± 36.59 mg/dL | Serum neutral fat ([1]; abnormal high value group, greater than 120 mg/dl): significantly decreased | body weight index (body weight divided by standard body weight) ([1]; after 12 weeks, at the sign-up time 1.24±0.154): 1.18±0.137 | number of patients with fasting blood sugar level No change or increase [1, 3]: 11 | number of patients with reduction rate of fasting blood sugar level 20-10% [1, 3]: 8 | number of patients with reduction rate of fasting blood sugar level <10% [1, 3]: 7 | number of patients with reduction rate of fasting blood sugar level >20% [1, 3]: 3 | number of patients with total serum cholesterol No change or increase [1, 4]: 11 | number of patients with total serum cholesterol decreasing rate 20-10% [1, 4]: 6 | number of patients with total serum cholesterol decreasing rate <10% [1, 4]: 5 | number of patients with total serum cholesterol decreasing rate >20% [1, 4]: 9 | number of patients with fasting blood sugar level No change or increase [1, 5]: 4 | number of patients with reduction rate of fasting blood sugar level 20-10% [1, 5]: 8 | number of patients with reduction rate of fasting blood sugar level <10% [1, 5]: 6 | number of patients with reduction rate of fasting blood sugar level >20% [1, 5]: 6 | number of patients with total serum cholesterol No change or increase [1, 6]: 4 | number of patients with total serum cholesterol decreasing rate 20-10% [1, 6]: 2 | number of patients with total serum cholesterol decreasing rate <10% [1, 6]: 1 | number of patients with total serum cholesterol decreasing rate >20% [1, 6]: 18 | number of patients with total serum cholesterol No change or increase [1, 7]: 1 | number of patients with total serum cholesterol decreasing rate 20-10% [1, 7]: 0 | number of patients with total serum cholesterol decreasing rate <10% [1, 7]: 1 | number of patients with total serum cholesterol decreasing rate >20% [1, 7]: 11 | number of patients with fasting blood sugar level No change or increase [1, 8]: 3 | number of patients with reduction rate of fasting blood sugar level 20-10% [1, 8]: 3 | number of patients with reduction rate of fasting blood sugar level <10% [1, 8]: 4 | number of patients with reduction rate of fasting blood sugar level >20% [1, 8]: 8 | Blood pressure, Diastolic period ([1]; borderline hypertensive patients (n = 14), 4th week, before medication 92 ± 3.0): 86 ± 2.4 mmHg | Blood pressure, Systolic period ([1]; borderline hypertensive patients (n = 14), 4th week, before medication 156 ± 5.4): 149 ± 3.8 mmHg | Blood pressure, Diastolic period ([1]; borderline hypertensive patients (n = 14), 8th week, before medication 92 ± 3.0): 86 ± 3.3 mmHg | Blood pressure, Systolic period ([1]; borderline hypertensive patients (n = 14), 8th week, before medication 156 ± 5.4): 147 ± 3.3 mmHg | Blood pressure, Diastolic period ([1]; borderline hypertensive patients (n = 14), 12th week, before medication 92 ± 3.0): 86 ± 4.1 mmHg | Blood pressure, Systolic period ([1]; borderline hypertensive patients (n = 14), 12th week, before medication 156 ± 5.4): 149 ± 5.5 mmHg | blood sugar decreasing effect ([1]; group having a fasting blood sugar level of greater than 130 mg/dl): has a significant blood sugar decreasing effect | Serum neutral fat, change vs before medication ([1]; group with serum neutral fat <120 mg/dl, 4th week): −9.3% (n = 6) | Serum neutral fat ([1]; group with serum neutral fat <120 mg/dl, 4th week, before medication 96.2 ± 12.57): 88.5 ± 32.93 mg/dL | Serum neutral fat, change vs before medication ([1]; group with serum neutral fat <120 mg/dl, 8th week): −15.7% (n = 7) | Serum neutral fat ([1]; group with serum neutral fat <120 mg/dl, 8th week, before medication 96.2 ± 12.57): 85.7 ± 24.64 mg/dL | Serum neutral fat, change vs before medication ([1]; group with serum neutral fat <120 mg/dl, 12th week): −5.2% (n = 8) | Serum neutral fat ([1]; group with serum neutral fat <120 mg/dl, 12th week, before medication 96.2 ± 12.57): 90.3 ± 22.32 mg/dL | Serum neutral fat, change vs before medication ([1]; group with serum neutral fat >120 mg/dl, 4th week): −15.5% (n = 56) | Serum neutral fat ([1]; group with serum neutral fat >120 mg/dl, 4th week, before medication 215.7 ± 83.96): 182.6 ± 68.26 mg/dL | Serum neutral fat, change vs before medication ([1]; group with serum neutral fat >120 mg/dl, 8th week): −23.2% (n = 52) | Serum neutral fat ([1]; group with serum neutral fat >120 mg/dl, 8th week, before medication 215.7 ± 83.96): 172.7 ± 62.84 mg/dL | Serum neutral fat, change vs before medication ([1]; group with serum neutral fat >120 mg/dl, 12th week): −25.4% (n = 61) | Serum neutral fat ([1]; group with serum neutral fat >120 mg/dl, 12th week, before medication 215.7 ± 83.96): 167.8 ± 72.93 mg/dL | decrease of systolic pressure ([1]; hypertension group, 4 weeks after medication, text: no significant difference): 10 mmHg | Blood pressure, Diastolic period ([1]; hypertensive patients (n = 7), 4th week, before medication 97 ± 3.0): 91 ± 3.0 mmHg | Blood pressure, Systolic period ([1]; hypertensive patients (n = 7), 4th week, before medication 175 ± 10.4): 165 ± 15.6 mmHg | Blood pressure, Diastolic period ([1]; hypertensive patients (n = 7), 8th week, before medication 97 ± 3.0): 90 ± 5.1 mmHg | Blood pressure, Systolic period ([1]; hypertensive patients (n = 7), 8th week, before medication 175 ± 10.4): 161 ± 13.9 mmHg | Blood pressure, Diastolic period ([1]; hypertensive patients (n = 7), 12th week, before medication 97 ± 3.0): 89 ± 4.0 mmHg | Blood pressure, Systolic period ([1]; hypertensive patients (n = 7), 12th week, before medication 175 ± 10.4): 158 ± 15.7 mmHg | blood sugar decreasing effect ([1]; normal blood sugar group, fasting blood sugar level of 130 mg/dl or less): does not have a blood sugar decreasing effect | concentration of serum cholesterol ([1]; normal group, serum total cholesterol 220 mg/dl or less): did not change the concentration of serum cholesterol significantly | Serum neutral fat ([1]; normal value group, 120 mg/dl or less): only a tendency to decrease | antihypertensive effect ([1]; patients of type II diabetes complicated with borderline hypertensive): highly significant antihypertensive effect | total cholesterol values ([1]; super high value group and high value group): further significantly decreased | edema of various organs including the kidney [2]: such as hypercardia and thickened arteries, and suppresses edema of various | lesions associated with cardiovascular diseases such as hypercardia and thickened arteries [2]: 4-0-methylascochlorin alleviates lesions associated with cardiovascular diseases
